Assay results taken from US6908906B2, “Crystalline forms of pyrimidine nucleoside derivative” (Sankyo Company, Limited, priority 2001, dated 2005).

Assay: Stability test: storage in stoppered vessels at 60° C. under a nitrogen atmosphere, content by HPLC
Format: physicochemical
Details: for Stability (Residual rate): based on initial content (100%)
Experimental: In the stability test, crystals B, C and D of the present invention prepared in Examples 1, 2 and 4, respectively and the amorphous powder (Amorphous A) of compound of general formula (I) described in Example 1 (1d) of the Japanese Patent No. 2569251 were used as reference. These compounds were placed in stoppered vessels separately and stored at 60° C. under a nitrogen atmosphere for 17 days, and the content of these compounds was measured on 5, 10 and 17 days after the initiation of the storage.
The content of these compounds was determined quantitatively with high performance liquid chromatography (HPLC), and the rate of the remaining compounds (%) was calculated by the content of Compound (I) determined at each sampling point based on the initial content (100%) determined immediately before the storage.

[1] = 5 days after the initiation of storage
[2] = 10 days after the initiation of storage
[3] = 17 days after the initiation of storage

stability (in words)	Stability (Residual rate) [1] [%]	Stability (Residual rate) [2] [%]	Stability (Residual rate) [3] [%]	Stability (Residual rate) (17 days after the initiation of storage, listed as amorphous A) [%]	Stability (Residual rate) (17 days after the initiation of storage, listed as crystal B) [%]	Stability (Residual rate) (17 days after the initiation of storage, listed as crystal D) [%]	Stability (Residual rate) (17 days after the initiation of storage, listed as crystal C) [%]	SMILES
extremely low	92.7	78.6	62.5	62.5	–	–	–	CCCCCCCCCCCCCCCC(=O)Nc1ccn([C@@H]2O[C@H](CO)[C@@H](O)[C@@H]2C#N)c(=O)n1 [Amorphous A, 2′-cyano-2′-deoxy-N^4-palmitoyl-1-β-D-arabinofuranosylcytosine, reference compound]
–	101.0	100.3	100.4	–	100	–	–	CCCCCCCCCCCCCCCC(=O)Nc1ccn([C@@H]2O[C@H](CO)[C@@H](O)[C@@H]2C#N)c(=O)n1 [Crystal B, 2′-cyano-2′-deoxy-N^4-palmitoyl-1-β-D-arabinofuranosylcytosine]
–	99.9	98.3	98.4	–	–	98.4	–	CCCCCCCCCCCCCCCC(=O)Nc1ccn([C@@H]2O[C@H](CO)[C@@H](O)[C@@H]2C#N)c(=O)n1 [Crystal D, 2′-cyano-2′-deoxy-N^4-palmitoyl-1-β-D-arabinofuranosylcytosine]
–	101.0	100.4	100.1	–	–	–	100	CCCCCCCCCCCCCCCC(=O)Nc1ccn([C@@H]2O[C@H](CO)[C@@H](O)[C@@H]2C#N)c(=O)n1 [Crystal C, 2′-cyano-2′-deoxy-N^4-palmitoyl-1-β-D-arabinofuranosylcytosine]
